Measurements reported in patent publication US6660755B2, “Substituted diaryl or diheteroaryl methans, ethers and amines having retinoid agonist, antagonist or inverse agonist type biological activity” (Allergan, Inc., priority 1997, dated 2003).

Experiments:
[1] = molecular target: RARβ (Homo sapiens, UniProt P10826, E106G/G107S/G110V); assay: PGR assay (RAR-P-GR holoreceptor transactivation), RARβ; assay type: cell-based; details: for Emax: 18 h; for EC50: PGR assay (transactivation), CV-1 cells, luciferase reporter
From the text: (§1) A holoreceptor transactivation assay and a ligand binding assay which measure the antagonist/agonist like activity of the compounds of the invention, or their ability to bind to the several retinoid receptor subtypes, respectively, are described in published PCT Application No. WO WO93/11755 (particularly on pages 30-33 and 37-41) published on Jun. 24, 1993, the specification of which is also incorporated herein by reference. A detailed experimental procedure for holoreceptor transactivations has been described by Heyman et al. Cell 1992, 68, 397-406; Allegretto et al. J. Biol. Chem. 1993 268, 26625-26633, and Mangelsdorf et al. The Retinoids: Biology, Chemistry and Medicine, pp 319-349, Raven Press Ltd., New York, which are expressly incorporated herein by reference. The results obtained in this assay are expressed in EC50 numbers, as they are also in the chimeric receptor transactivation assay. The results of ligand binding assay are expressed in Kd numbers. (See Cheng et al. Biochemical Pharmacology 22, 3099-3108, expressly incorporated herein by reference.) Still another transactivation assay, the “PGR assay” is described in the publication Klein et al. J. Biol. Chem. 1996, 271, 22692-22696, which is expressly incorporated herein by reference, and a detailed description is also provided below. The results of the PGR assay are also expressed in EC50 numbers (nanomolar concentration).
RAR-P-GR holoreceptor Transactivation Assay
CV-1 cells (4×10^5 cells/well) were transiently transfected with the luciferase reporter plasmid MTV-4(R5G)-Luc (0.7 μg/well) containing four copies of the R5G retinoid DNA response element along with the RXRα expression plasmid pRS-hRXRa (0.1 μg/well) and one of the RAR-P-GR expression plasmids (0.05 μg/well) in 12 well plates via calcium phosphate precipitation Chen et al. Mol. Cell. Biol. 1987, 7, 2745-2752 as described by Klein et al. J. Biol. Chem. 1996, 271, 22692, referenced above. The three different RAR-P-GR expression plasmids, pRS-RARα-P-GR, pcDNA3-RARβ-P-GR and pcDNA3-RARγ-P-GR, express RARα, RARβ and RARγ receptors, respectively, which contain modified DNA binding domains such that their “P-boxes” have been altered to that of the glucocorticoid receptor. These RAR-P-GR receptors bind to DNA as heterodimeric complexes with RXR. Specifically, the RAR-P-GR receptors bind retinoic acid response elements designated R5G, comprised of two RAR half sites (nucleotide sequence 5′-GGTTCA-3′) separated by 5 base pairs in which the 3′-half site has been modified to that of a glucocorticoid receptor half site, 5′-AGAACA-3′. To allow for various in transfection efficiency a β-galactosidase expression plasmid (0.01 μg/well) was used as an internal control. Alternatively, the assay was performed in a 96-well microtiter plate format (5000 cells/well) in a manner which was identical to that described above except ⅕ of the amount of the DNA-calcium phosphate precipitant (20 μl instead of 100 Al) was applied to each well. Eighteen hours after introduction of the DNA precipitants, cells were rinsed with phosphate buffered saline (PBS) and fed with D-MEM (Gibco-BRL) containing 10% activated charcoal extracted fetal bovine serum (Gemini Bio-Products). After rinsing with PBS cells were lysed with luciferase activity was measured as previously described in de Wet Mol. Cell. Biol. 1987, 7, 725-737. Luciferase values represent the mean±SEM of triplicate determinations normalized to β-galactosidase activity. The results of the PGR assay are also expressed in EC50 numbers (nanomolar concentration).

[2] = molecular target: T1, RARα (Homo sapiens, UniProt P10276); assay: Ligand binding assay, RARα
T1 sequence (P10276 1-462): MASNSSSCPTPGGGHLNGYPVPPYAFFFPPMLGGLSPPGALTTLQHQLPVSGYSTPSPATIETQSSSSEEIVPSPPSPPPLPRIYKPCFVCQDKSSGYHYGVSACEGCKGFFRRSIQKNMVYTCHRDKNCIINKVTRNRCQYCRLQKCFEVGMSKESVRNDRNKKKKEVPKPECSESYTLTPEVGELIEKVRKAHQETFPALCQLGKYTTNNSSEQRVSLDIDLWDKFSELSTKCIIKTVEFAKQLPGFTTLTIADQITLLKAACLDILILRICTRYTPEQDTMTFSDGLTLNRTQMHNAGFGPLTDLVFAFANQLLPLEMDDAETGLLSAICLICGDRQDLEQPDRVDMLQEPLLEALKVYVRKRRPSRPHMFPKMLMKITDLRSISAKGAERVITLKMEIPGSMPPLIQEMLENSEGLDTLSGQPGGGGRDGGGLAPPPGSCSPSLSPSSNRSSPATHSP
From the text: as §1

[3] = molecular target: T2, RARβ (Homo sapiens, UniProt P10826); assay: Ligand binding assay, RARβ; details: read-out: Kd RABβ
T2 sequence (P10826 1-455): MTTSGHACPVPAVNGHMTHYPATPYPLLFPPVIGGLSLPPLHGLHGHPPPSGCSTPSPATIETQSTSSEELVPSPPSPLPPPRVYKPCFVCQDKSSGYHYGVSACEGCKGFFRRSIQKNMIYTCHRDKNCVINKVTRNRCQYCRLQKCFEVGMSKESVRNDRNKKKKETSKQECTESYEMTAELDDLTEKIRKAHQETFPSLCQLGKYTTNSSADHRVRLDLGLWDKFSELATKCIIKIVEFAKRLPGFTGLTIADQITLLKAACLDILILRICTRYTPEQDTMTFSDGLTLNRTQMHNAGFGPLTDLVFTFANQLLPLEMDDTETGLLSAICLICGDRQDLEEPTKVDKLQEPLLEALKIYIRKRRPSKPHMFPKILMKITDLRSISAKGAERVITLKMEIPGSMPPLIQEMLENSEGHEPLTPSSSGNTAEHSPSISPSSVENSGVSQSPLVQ
From the text: as §1

[4] = efficiency relative to all-trans-retinoic acid, PGR assay

Sequence of RARβ (Homo sapiens, UniProt P10826, E106G/G107S/G110V) (P19793 whole entry): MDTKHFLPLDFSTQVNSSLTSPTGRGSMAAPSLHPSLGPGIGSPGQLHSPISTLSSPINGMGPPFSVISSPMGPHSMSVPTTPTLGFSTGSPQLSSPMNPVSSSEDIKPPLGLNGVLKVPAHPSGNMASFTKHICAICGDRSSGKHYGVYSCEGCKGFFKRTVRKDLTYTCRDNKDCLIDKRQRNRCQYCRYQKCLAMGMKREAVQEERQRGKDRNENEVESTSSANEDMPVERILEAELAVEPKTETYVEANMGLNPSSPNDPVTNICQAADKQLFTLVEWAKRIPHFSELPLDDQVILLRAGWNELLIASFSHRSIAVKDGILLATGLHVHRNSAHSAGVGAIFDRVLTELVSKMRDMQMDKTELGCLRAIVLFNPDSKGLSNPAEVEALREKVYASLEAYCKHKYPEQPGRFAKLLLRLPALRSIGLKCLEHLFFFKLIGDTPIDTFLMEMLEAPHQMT
Sequence of RARβ (Homo sapiens, UniProt P10826, E106G/G107S/G110V) (P10826 whole entry E106G/G107S/G110V): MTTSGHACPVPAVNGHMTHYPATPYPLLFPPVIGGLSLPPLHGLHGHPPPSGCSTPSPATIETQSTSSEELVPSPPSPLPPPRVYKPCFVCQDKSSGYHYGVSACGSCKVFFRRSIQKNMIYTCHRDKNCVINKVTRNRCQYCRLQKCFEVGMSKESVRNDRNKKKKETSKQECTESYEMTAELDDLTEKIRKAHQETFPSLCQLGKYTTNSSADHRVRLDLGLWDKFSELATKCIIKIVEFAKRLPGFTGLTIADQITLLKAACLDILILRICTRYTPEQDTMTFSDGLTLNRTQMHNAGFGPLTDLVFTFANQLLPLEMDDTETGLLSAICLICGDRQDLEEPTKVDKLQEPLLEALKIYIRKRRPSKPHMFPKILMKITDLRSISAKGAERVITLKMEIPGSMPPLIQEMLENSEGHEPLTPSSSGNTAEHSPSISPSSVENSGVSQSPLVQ

Q: How did the Emax [1, 4] turn out when CC(C)(C)c1ccc(C#Cc2ccc(C(=O)O)c(F)c2)cc1Oc1ccc([N+](=O)[O-])cc1 [Compound 11, 4-[[4′-tert-Butyl-3′-(4″-nitro)phenoxy]phenylethynyl]-2-fluoro-benzoic Acid] was run?
A: The Emax was 3%.

Q: And the EC50 [1]?
A: The EC50 was over 10000 nM.

Q: What about the Kd [2] of the same compound?
A: Its Kd is 24 nM.

Q: And the Kd [3]?
A: Its Kd is 34 nM.

Q: With CC(C)(C)c1ccc(C(=O)Nc2ccc(C(=O)O)c(F)c2)cc1Oc1ccc(C(F)(F)F)cc1 [Compound 13, 4-[[4′-tert-Butyl-3′-(4″-trifluoromethyl)phenoxy]benzoylamino]-2-fluorobenzoic Acid] as the compound, how does the Emax [1, 4] read?
A: Its Emax is 5%.

Q: What about the EC50 [1] of the same compound?
A: Its EC50 is over 10000 nM.

Q: And the Kd [2]?
A: The Kd was 11 nM.

Q: What about the Kd [3] of the same compound?
A: The Kd was 4570 nM.

Q: For COC(=O)c1ccc(Oc2cc(C#Cc3ccc(C(=O)O)c(F)c3)ccc2C(C)(C)C)cc1 [Compound 10, 4-[[4′-tert-Butyl-3′-(4″-carbomethoxy)phenoxy]phenylethynyl]-2-fluorobenzoic Acid], which Emax [1, 4] is on record?
A: Its Emax is 0%.

Q: What about the EC50 [1] of the same compound?
A: The EC50 was over 10000 nM.

Q: And the Kd [2]?
A: Its Kd is 15 nM.

Q: What about the Kd [3] of the same compound?
A: Its Kd is 14 nM.

Q: What does the source list for CC(C)(C)c1ccc(C#Cc2ccc(C(=O)O)cn2)cc1Oc1ccc(C(F)(F)F)cc1 [Compound 6, 6-[[4′-tert-Butyl-3′-(4″-trifluomethyl)phenoxy]phenylethynyl]-3-nicotinic Acid]?
A: EC50 [1]: > 10000 nM; % Efficiency RARβ [1, 4]: 0%; Kd [2]: 1050 nM; Kd [3]: 113 nM
